The values that follow come from paper PMC6943437, “Coupling the Antimalarial Cell Penetrating Peptide TP10 to Classical Antimalarial Drugs Primaquine and Chloroquine Produces Strongly Hemolytic Conjugates” (Molecules, 2019).

Molecules are shown by their SMILES.

One data set deals with P. falciparum 3D7. The settings on record: cited from earlier work.
The test system of another data set is P. falciparum W2. The settings on record: cited from earlier work.
The subject of a further data set is hRBC. Put plainly: In vitro hemolytic activity on healthy erythrocytes. In kind it is cell-based. The settings on record: cultures of hRBC and PiRBC, summary of Table 3. How it is done: For positive and negative controls, 1% Triton X-100 and PBS were added, respectively. After this period, the plates were centrifuged and supernatants transferred to another plate. Supernatant absorbance at 450 nm was assessed in a multi-mode microplate reader (Triad, Dynex Technologies, Chantilly, VA, USA) and values were treated using the following equation (1):(1) % Hemolysis=Abs−Abs(negative control)/Abs(positive control)−Abs(negative control)

In general, IC50 refers to the concentration that gives 50% inhibition. Take `CCN(CC)CCCC(C)Nc1ccnc2cc(Cl)ccc12` (stereo not drawn) [compound 1, chloroquine]: the values for the IC50 in the data set with P. falciparum 3D7 and with P. falciparum W2 were 21 nM and 699 nM, respectively. For the same molecule, the “hemolytic activity (in words)” value in the data set on hRBC was “not hemolytic”.
